The target in assay [1] is T1, Cysteine--tRNA ligase, cytoplasmic (Homo sapiens, UniProt P49589).
T1 sequence (P49589 whole entry): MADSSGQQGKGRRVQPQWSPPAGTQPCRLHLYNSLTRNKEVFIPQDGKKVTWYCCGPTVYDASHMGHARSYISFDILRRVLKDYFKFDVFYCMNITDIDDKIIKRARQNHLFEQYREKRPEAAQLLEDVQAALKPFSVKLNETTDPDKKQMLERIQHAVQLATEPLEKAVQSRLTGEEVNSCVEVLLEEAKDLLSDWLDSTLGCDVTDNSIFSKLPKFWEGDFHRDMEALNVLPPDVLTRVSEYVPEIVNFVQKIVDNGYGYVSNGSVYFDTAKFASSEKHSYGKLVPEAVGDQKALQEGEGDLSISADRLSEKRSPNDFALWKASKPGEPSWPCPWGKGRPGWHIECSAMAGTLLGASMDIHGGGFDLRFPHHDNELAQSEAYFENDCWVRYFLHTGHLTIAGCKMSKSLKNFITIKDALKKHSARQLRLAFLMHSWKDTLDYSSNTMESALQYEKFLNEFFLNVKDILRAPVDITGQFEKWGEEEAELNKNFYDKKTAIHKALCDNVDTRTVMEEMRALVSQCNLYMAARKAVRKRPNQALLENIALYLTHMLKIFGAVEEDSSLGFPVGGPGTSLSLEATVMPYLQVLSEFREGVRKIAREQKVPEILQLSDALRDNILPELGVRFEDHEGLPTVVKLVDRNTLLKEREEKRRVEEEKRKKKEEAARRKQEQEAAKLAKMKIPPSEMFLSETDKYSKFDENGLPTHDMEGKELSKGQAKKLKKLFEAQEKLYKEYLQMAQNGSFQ

In assay [2] the target is T2, ATP-dependent RNA helicase DDX1 (Homo sapiens, UniProt Q92499).
T2 sequence (Q92499 whole entry): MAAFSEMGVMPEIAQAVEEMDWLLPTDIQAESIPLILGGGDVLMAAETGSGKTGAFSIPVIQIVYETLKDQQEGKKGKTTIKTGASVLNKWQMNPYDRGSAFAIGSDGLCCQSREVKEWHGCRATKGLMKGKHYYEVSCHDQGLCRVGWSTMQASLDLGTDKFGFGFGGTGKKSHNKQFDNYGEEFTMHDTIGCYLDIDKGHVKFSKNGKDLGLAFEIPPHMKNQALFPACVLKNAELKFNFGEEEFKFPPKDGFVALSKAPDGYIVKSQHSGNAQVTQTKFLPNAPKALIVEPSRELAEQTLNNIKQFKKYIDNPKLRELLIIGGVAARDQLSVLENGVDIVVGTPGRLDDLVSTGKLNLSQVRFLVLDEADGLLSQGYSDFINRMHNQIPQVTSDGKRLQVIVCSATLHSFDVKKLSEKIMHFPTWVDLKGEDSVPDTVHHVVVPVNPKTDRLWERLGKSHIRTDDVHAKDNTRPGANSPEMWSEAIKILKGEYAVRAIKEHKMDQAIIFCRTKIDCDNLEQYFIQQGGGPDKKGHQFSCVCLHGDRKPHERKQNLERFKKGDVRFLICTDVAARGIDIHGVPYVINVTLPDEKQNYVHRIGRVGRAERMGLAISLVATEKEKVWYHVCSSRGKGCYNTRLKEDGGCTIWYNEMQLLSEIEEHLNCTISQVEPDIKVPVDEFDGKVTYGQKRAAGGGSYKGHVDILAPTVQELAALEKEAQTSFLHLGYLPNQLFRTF

Assay [3] addresses T3, Mitogen-activated protein kinase kinase kinase 3 (Homo sapiens, UniProt Q99759).
T3 sequence (Q99759 whole entry): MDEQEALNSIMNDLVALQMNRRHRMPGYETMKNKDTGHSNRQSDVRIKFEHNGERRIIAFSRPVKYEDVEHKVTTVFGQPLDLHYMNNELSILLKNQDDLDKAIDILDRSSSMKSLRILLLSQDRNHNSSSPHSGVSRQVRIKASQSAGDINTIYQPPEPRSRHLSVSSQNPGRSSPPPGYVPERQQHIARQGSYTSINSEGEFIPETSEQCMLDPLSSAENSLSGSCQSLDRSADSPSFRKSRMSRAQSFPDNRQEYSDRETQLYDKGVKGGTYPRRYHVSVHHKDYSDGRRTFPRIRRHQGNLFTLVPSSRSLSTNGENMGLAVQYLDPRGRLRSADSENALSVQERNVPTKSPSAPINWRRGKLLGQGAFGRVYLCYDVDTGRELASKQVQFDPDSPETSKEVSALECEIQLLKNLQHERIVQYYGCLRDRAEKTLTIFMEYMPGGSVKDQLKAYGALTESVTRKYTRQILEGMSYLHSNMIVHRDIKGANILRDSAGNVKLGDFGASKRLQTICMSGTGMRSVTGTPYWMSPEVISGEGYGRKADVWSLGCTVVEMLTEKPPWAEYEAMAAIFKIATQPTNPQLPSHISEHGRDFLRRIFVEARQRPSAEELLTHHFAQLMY

In assay [4] the target is T4, Glycogen phosphorylase, brain form (Homo sapiens, UniProt P11216).
T4 sequence (P11216 whole entry): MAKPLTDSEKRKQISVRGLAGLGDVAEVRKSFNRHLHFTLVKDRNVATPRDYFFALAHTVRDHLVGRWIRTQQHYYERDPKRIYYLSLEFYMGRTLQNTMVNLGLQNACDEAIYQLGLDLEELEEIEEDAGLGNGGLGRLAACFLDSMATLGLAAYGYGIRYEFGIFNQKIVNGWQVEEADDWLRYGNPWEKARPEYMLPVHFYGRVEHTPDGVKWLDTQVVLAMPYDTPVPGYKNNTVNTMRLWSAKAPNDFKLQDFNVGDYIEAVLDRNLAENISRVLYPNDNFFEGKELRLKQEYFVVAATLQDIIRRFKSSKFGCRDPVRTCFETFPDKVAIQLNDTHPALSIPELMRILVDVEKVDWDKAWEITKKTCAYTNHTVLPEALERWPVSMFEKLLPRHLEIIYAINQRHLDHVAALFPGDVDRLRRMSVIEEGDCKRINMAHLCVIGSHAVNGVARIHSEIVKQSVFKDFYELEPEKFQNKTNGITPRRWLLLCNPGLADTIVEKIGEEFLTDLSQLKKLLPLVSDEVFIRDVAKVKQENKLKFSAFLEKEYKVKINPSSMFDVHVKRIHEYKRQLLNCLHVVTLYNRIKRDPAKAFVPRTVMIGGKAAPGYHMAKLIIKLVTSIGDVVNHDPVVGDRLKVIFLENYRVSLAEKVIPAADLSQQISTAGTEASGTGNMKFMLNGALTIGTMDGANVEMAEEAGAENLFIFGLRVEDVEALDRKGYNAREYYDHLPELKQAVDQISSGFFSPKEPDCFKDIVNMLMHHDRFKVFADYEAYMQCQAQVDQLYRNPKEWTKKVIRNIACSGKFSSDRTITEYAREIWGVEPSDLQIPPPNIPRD

Assay [5] concerns the target Rho-associated protein kinase 1 (Homo sapiens, UniProt Q13464).
Assay [6] concerns the target Tyrosine-protein kinase Yes (Homo sapiens, UniProt P07947).

As a reminder, the Kd is the free concentration of one partner at which half of the binding sites on the other are occupied at equilibrium, for simple one-to-one binding.

Molecules are shown by their SMILES. Calls of active or inactive are those of the source.
Further: in the data inactive means no Kd found up to 30 µM.

Chain of Tyrosine-protein kinase Yes (P07947 whole entry): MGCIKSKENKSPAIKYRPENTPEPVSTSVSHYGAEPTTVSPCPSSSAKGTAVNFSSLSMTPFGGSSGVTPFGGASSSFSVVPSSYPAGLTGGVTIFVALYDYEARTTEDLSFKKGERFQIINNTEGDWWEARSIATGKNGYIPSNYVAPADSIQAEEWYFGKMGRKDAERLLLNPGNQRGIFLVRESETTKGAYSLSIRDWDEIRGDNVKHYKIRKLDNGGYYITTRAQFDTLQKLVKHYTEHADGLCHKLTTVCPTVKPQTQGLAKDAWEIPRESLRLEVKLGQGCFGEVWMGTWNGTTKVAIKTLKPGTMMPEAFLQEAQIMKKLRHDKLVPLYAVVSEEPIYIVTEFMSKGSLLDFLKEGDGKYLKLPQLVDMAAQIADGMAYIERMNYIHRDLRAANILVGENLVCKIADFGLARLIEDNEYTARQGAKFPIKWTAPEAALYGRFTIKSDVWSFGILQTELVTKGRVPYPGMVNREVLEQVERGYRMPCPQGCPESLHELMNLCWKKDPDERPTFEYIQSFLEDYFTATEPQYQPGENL
Chain of Rho-associated protein kinase 1 (Q13464 whole entry): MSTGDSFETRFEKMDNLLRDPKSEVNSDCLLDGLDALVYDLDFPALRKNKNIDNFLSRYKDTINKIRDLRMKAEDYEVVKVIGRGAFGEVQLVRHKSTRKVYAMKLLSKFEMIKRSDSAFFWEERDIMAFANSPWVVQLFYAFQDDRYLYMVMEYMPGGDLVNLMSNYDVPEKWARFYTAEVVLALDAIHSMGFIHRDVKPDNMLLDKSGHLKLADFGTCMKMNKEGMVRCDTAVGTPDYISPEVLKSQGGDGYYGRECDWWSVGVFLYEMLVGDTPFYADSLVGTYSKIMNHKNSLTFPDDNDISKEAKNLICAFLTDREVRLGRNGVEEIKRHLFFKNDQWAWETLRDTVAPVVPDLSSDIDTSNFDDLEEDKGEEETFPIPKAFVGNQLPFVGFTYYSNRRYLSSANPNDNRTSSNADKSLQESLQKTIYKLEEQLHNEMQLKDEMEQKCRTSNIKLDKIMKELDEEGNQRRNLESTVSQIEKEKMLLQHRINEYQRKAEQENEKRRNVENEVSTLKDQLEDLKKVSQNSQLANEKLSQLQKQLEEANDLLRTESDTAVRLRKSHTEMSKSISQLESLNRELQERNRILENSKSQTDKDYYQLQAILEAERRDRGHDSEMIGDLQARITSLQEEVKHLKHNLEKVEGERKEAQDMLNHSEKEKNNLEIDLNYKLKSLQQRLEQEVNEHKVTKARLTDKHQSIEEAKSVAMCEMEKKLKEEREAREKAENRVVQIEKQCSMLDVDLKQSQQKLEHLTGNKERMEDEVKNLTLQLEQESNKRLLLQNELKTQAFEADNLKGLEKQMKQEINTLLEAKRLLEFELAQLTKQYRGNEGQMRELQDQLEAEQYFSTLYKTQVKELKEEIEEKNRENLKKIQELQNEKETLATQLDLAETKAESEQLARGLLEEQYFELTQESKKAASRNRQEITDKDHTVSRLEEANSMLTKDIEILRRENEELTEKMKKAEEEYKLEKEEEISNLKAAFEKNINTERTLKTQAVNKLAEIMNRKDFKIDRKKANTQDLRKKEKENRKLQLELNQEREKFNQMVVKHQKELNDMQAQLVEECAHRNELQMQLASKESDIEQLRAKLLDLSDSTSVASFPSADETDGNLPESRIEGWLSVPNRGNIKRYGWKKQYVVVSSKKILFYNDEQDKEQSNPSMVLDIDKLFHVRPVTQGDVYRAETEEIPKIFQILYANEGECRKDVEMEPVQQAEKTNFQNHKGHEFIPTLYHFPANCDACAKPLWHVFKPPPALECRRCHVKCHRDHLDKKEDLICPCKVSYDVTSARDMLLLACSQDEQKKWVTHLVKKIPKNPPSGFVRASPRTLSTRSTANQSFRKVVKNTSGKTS

Regarding `CN1CC[C@@H](c2c(O)cc(O)c3c(=O)cc(-c4ccccc4Cl)oc23)[C@@H]1CO`, the Kd in assay [1], in assay [2], in assay [3], in assay [4], in assay [5] and in assay [6] was > 30 µM (inactive) each time.
In the case of `N[C@@H]1CCCN(c2c(/C=C3\SC(=O)NC3=O)cccc2-c2ccccc2)C1`, the Kd in assay [1], in assay [2], in assay [3], in assay [4], in assay [5] and in assay [6] was > 30 µM (inactive) throughout.
On to `C[C@@H]1CN(Cc2ccc(F)cc2)[C@@H](C)CN1C(=O)c1cc2c(C(=O)C(=O)N(C)C)cn(C)c2cc1Cl` [TALMAPIMOD], for which the Kd in assay [1], in assay [2], in assay [3], in assay [4], in assay [5] and in assay [6] was > 30 µM (inactive) each time.
Turning to `CN1CCC(COc2cnc(-c3cccc(Cn4nc(-c5cccc(C#N)c5)ccc4=O)c3)nc2)CC1` [TEPOTINIB], the Kd in assay [1], in assay [2], in assay [3], in assay [4], in assay [5] and in assay [6] was > 30 µM (inactive) each time.
Consider `COc1cc2nccc(Oc3ccc(NC(=O)NC4CC4)c(Cl)c3)c2cc1C(N)=O` [LENVATINIB], for which the Kd in assay [1], in assay [2], in assay [3], in assay [4], in assay [5] and in assay [6] was > 30 µM (inactive) each time.
With `CCn1c(=O)c(-c2cc[nH]n2)cc2c(C)nc(N)nc21` [VOXTALISIB], the Kd in assay [1], in assay [2], in assay [3], in assay [4], in assay [5] and in assay [6] was > 30 µM (inactive) throughout.
As to `Cc1cc2c(F)c(Oc3ncnn4cc(OC[C@@H](C)OC(=O)[C@H](C)N)c(C)c34)ccc2[nH]1` [BRIVANIB ALANINATE], the Kd in assay [1], in assay [2], in assay [3], in assay [4], in assay [5] and in assay [6] was > 30 µM (inactive) throughout.
On to `CNC(=O)c1cc(Oc2ccc(NC(=O)Nc3ccc(Cl)c(C(F)(F)F)c3)c(F)c2)ccn1` [REGORAFENIB], for which the Kd in assay [1], in assay [2], in assay [3], in assay [4], in assay [5] and in assay [6] was > 30 µM (inactive) each time.
Turning to `COC(=O)N[C@@H](C)CNc1nccc(-c2cn(C(C)C)nc2-c2cc(Cl)cc(NS(C)(=O)=O)c2F)n1` [ENCORAFENIB], the Kd in assay [1], in assay [2], in assay [3], in assay [4], in assay [5] and in assay [6] was > 30 µM (inactive) in each case.
Take `Cc1cc(-c2cc(O)ccc2Cl)cc2nnc(Nc3ccc(OCCN4CCCC4)cc3)nc12`: the Kd in assay [1] is > 30 µM (inactive); in assay [2], > 30 µM (inactive); in assay [3], > 30 µM (inactive); in assay [4], > 30 µM (inactive); in assay [5], > 30 µM (inactive); in assay [6], 0.001 µM (active).
In the case of `CC[C@@H]1C(=O)N(C)c2cnc(Nc3ccc(C(=O)N[C@H]4CC[C@H](N5CCN(CC6CC6)CC5)CC4)cc3OC)nc2N1C(C)C` [VOLASERTIB], the Kd in assay [1], in assay [2], in assay [3], in assay [4], in assay [5] and in assay [6] was > 30 µM (inactive) throughout.
`O=c1sn(-c2cccc3ccccc23)c(=O)n1Cc1ccccc1` [TIDEGLUSIB]: the Kd in assay [1], in assay [2], in assay [3], in assay [4], in assay [5] and in assay [6] was > 30 µM (inactive) each time.
`CO[C@H]1C[C@@H]2CC[C@@H](C)[C@@](O)(O2)C(=O)C(=O)N2CCCC[C@H]2C(=O)O[C@H]([C@H](C)C[C@@H]2CC[C@@H](OCCO)[C@H](OC)C2)CC(=O)[C@H](C)/C=C(\C)[C@@H](O)[C@@H](OC)C(=O)[C@H](C)C[C@H](C)/C=C/C=C/C=C/1C` [EVEROLIMUS]: the Kd in assay [1], in assay [2], in assay [3], in assay [4], in assay [5] and in assay [6] was > 30 µM (inactive) each time.
Take `CN(C)C(=O)c1cc2cnc(Nc3ccc(N4CCNCC4)cn3)nc2n1C1CCCC1` [RIBOCICLIB]: the Kd in assay [1], in assay [2], in assay [3], in assay [4], in assay [5] and in assay [6] was > 30 µM (inactive) each time.

These data come from ChEMBL document CHEMBL3991601, “The target landscape of clinical kinase drugs” (Science, 2017).
